Laboratory results as given in patent US20230044602A1, “CANCER SIGNATURES, METHODS OF GENERATING CANCER SIGNATURES, AND USES THEREOF” (EDWARD VIA COLLEGE OF OSTEOPATHIC MEDICINE, priority 2019, published 2023).

Legend:
[1] = test system: GBM patients; experiment: Disease-free survival of PGS-stratified TCGA GBM patients treated with or without TMZ; format: in vivo, human; conditions: TCGA training cohort
Protocol: Clinical data on adjuvant chemotherapy (ACT) or TMZ administration for the TOGA training cohorts were retrieved from the NCI GDC data portal, and the Buffa hypoxia scores for each patient were retrieved from TOGA PanCancer Atlas through cBioPortal (Ref. 54). Differences in patient benefit from treatment across risk groups were assessed using one-tailed two-sample t-tests on unequal variances and Fisher's Exact Tests. Two-tailed two-sample t-tests on unequal variances assessed the correlation of PGS risk stratification with tumor hypoxia in NSCLC.

[2] = Refs. 3 and 11; cited from earlier work
[3] = test system: NSCLC and GBM; conditions: Refs. 83-85; cited from earlier work

Row | Structure (SMILES) | average DFS time ([1]; high-risk progression GBM patients (GBM-PGS) treated with TMZ) [months] | average DFS time ([1]; low-risk progression GBM patients (GBM-PGS) treated with TMZ) [months] | penetration through the blood-brain barrier [2] | efficacy in treating NSCLC and GBM [3]
1 | Cn1nnc2c(C(N)=O)ncn2c1=O [TMZ, Temozolomide] | 10.80 | 16.52 | efficient penetration | 
2 | NS(=O)(=O)c1cccc2c1C(=O)c1cccc(O)c1C2=O [LLL12] |  |  |  | promising efficacy
3 | Cc1cc(Nc2nc(N[C@@H](C)c3ncc(F)cn3)ncc2Cl)n[nH]1 [AZD1480] |  |  |  | promising efficacy
